Species: Rattus norvegicus
Assay: Open TG-GATES - Regimen: Single
Type: toxicity, organism-based, Sprague-Dawley
Design: regimen Single, gender Male, age 6 weeks
Conditions: in vivo, po, 100 mg/kg, route gavage, dose level Low; for APTT / Bas / Eos / Fbg / Hb / Ht / Lym / MCH / MCHC / MCV / Mono / Neu / PT / Plat / RBC / Ret / WBC: tissue Blood; for KIDNEY_L / KIDNEY_R / KIDNEY_TOTAL: tissue Kidney; for LIVER: tissue Liver; for A/G / ALP / ALT / AST / BUN / CRE / Ca / Cl / DBIL / GLC / IP / K / LDH / Na / PL / RALB / TBIL / TC / TG / TP / gamma-GTP: tissue Plasma

COC1=CC(=O)C[C@@H](C)[C@]12Oc1c(Cl)c(OC)cc(OC)c1C2=O [GRISEOFULVIN] showed a TERMINAL_BW (3 h) of 211.4 g, an APTT (3 h) of 18.7 s and a Bas (3 h) of 0%. For the same molecule, the Eos (3 h) was 0.8%, the Fbg (3 h) was 213 mg/dL and the Hb (3 h) was 13 g/dL. For the same molecule, the Ht (3 h) was 37.9%, the Lym (3 h) was 77% and the MCH (3 h) was 21.6 pg. It also gave an MCHC (3 h) of 34.3%, an MCV (3 h) of 63.2 fL and a Mono (3 h) of 2.8%. For the same molecule, the Neu (3 h) was 19%, the PT (3 h) was 13 s and the Plat (3 h) was 121.7 x10_4/uL. The RBC (3 h) was 600 x10_4/ul, the Ret (3 h) was 8% and the WBC (3 h) was 116.5 x10_2/uL. For the same molecule, the KIDNEY_L (3 h) was 0.9 g, the KIDNEY_R (3 h) was 1 g and the KIDNEY_TOTAL (3 h) was 1.9 g. It also gave an LIVER (3 h) of 9.4 g, an A/G (3 h) of 1.7 and an ALP (3 h) of 1005.8 IU/L. The ALT (3 h) was 37.8 IU/L, the AST (3 h) was 66.8 IU/L and the BUN (3 h) was 10.2 mg/dL. The CRE (3 h) was 0.3 mg/dL, the Ca (3 h) was 10.9 mg/dL and the Cl (3 h) was 104.2 meq/L. For the same molecule, the DBIL (3 h) was 0.2 mg/dL, the GLC (3 h) was 181.4 mg/dL and the IP (3 h) was 8.8 mg/dL. It also gave a K (3 h) of 3.7 meq/L, an LDH (3 h) of 130.4 IU/L and a Na (3 h) of 141.6 meq/L. For the same molecule, the PL (3 h) was 164 mg/dL, the RALB (3 h) was 3.4 g/dL and the TBIL (3 h) was 0.3 mg/dL. For the same molecule, the TC (3 h) was 80.6 mg/dL, the TG (3 h) was 131.4 mg/dL and the TP (3 h) was 5.4 g/dL. It also gave a gamma-GTP (3 h) of 0.8 IU/L, a TERMINAL_BW (6 h) of 209.8 g and an APTT (6 h) of 17.8 s. For the same molecule, the Bas (6 h) was 0%, the Eos (6 h) was 1% and the Fbg (6 h) was 218 mg/dL. The Hb (6 h) was 13.3 g/dL, the Ht (6 h) was 38.8% and the Lym (6 h) was 75.6%. The MCH (6 h) was 22 pg, the MCHC (6 h) was 34.3% and the MCV (6 h) was 64.2 fL. The Mono (6 h) was 3%, the Neu (6 h) was 20% and the PT (6 h) was 13 s. It also gave a Plat (6 h) of 135.7 x10_4/uL, an RBC (6 h) of 604.8 x10_4/ul and a Ret (6 h) of 8%. For the same molecule, the WBC (6 h) was 100.3 x10_2/uL, the KIDNEY_L (6 h) was 0.9 g and the KIDNEY_R (6 h) was 0.9 g. It also gave a KIDNEY_TOTAL (6 h) of 1.9 g, an LIVER (6 h) of 9.1 g and an A/G (6 h) of 1.8. For the same molecule, the ALP (6 h) was 1063.4 IU/L, the ALT (6 h) was 38.6 IU/L and the AST (6 h) was 70.8 IU/L. For the same molecule, the BUN (6 h) was 10 mg/dL, the CRE (6 h) was 0.4 mg/dL and the Ca (6 h) was 10.8 mg/dL. For the same molecule, the Cl (6 h) was 103.4 meq/L, the DBIL (6 h) was 0.094 mg/dL and the GLC (6 h) was 200.4 mg/dL. For the same molecule, the IP (6 h) was 9.7 mg/dL, the K (6 h) was 4 meq/L and the LDH (6 h) was 179.4 IU/L. It also gave a Na (6 h) of 141 meq/L, a PL (6 h) of 148.4 mg/dL and an RALB (6 h) of 3.4 g/dL. The TBIL (6 h) was 0.2 mg/dL, the TC (6 h) was 80.8 mg/dL and the TG (6 h) was 48.6 mg/dL. For the same molecule, the TP (6 h) was 5.4 g/dL, the gamma-GTP (6 h) was 1.6 IU/L and the TERMINAL_BW (9 h) was 207.5 g. The APTT (9 h) was 18.1 s, the Bas (9 h) was 0% and the Eos (9 h) was 1%. It also gave a Fbg (9 h) of 222.6 mg/dL, a Hb (9 h) of 13.2 g/dL and a Ht (9 h) of 38.8%. The Lym (9 h) was 74.8%, the MCH (9 h) was 21.4 pg and the MCHC (9 h) was 34.1%. For the same molecule, the MCV (9 h) was 62.9 fL, the Mono (9 h) was 2.2% and the Neu (9 h) was 22%. The PT (9 h) was 13.3 s, the Plat (9 h) was 123.9 x10_4/uL and the RBC (9 h) was 617.8 x10_4/ul. It also gave a Ret (9 h) of 7.5%, a WBC (9 h) of 96 x10_2/uL and a KIDNEY_L (9 h) of 1 g. The KIDNEY_R (9 h) was 0.9 g, the KIDNEY_TOTAL (9 h) was 1.9 g and the LIVER (9 h) was 8.6 g. The A/G (9 h) was 1.7, the ALP (9 h) was 994.6 IU/L and the ALT (9 h) was 34.4 IU/L. The AST (9 h) was 64.2 IU/L, the BUN (9 h) was 9.8 mg/dL and the CRE (9 h) was 0.3 mg/dL. For the same molecule, the Ca (9 h) was 10.4 mg/dL, the Cl (9 h) was 103.6 meq/L and the DBIL (9 h) was 0.078 mg/dL. The GLC (9 h) was 199.6 mg/dL, the IP (9 h) was 10.3 mg/dL and the K (9 h) was 3.9 meq/L. It also gave an LDH (9 h) of 101 IU/L, a Na (9 h) of 142 meq/L and a PL (9 h) of 138.2 mg/dL. It also gave an RALB (9 h) of 3.4 g/dL, a TBIL (9 h) of 0.1 mg/dL and a TC (9 h) of 72.6 mg/dL. It also gave a TG (9 h) of 48 mg/dL, a TP (9 h) of 5.4 g/dL and a gamma-GTP (9 h) of 1.2 IU/L. It also gave a TERMINAL_BW (24 h) of 224.8 g, an APTT (24 h) of 19.6 s and a Bas (24 h) of 0%. For the same molecule, the Eos (24 h) was 1%, the Fbg (24 h) was 222.4 mg/dL and the Hb (24 h) was 13.4 g/dL. For the same molecule, the Ht (24 h) was 40.6%, the Lym (24 h) was 77.6% and the MCH (24 h) was 21.5 pg. It also gave an MCHC (24 h) of 33.1%, an MCV (24 h) of 64.8 fL and a Mono (24 h) of 3.2%. The Neu (24 h) was 17.4%, the PT (24 h) was 13.1 s and the Plat (24 h) was 117.6 x10_4/uL. It also gave an RBC (24 h) of 626.6 x10_4/ul, a Ret (24 h) of 7.2% and a WBC (24 h) of 107.9 x10_2/uL. For the same molecule, the KIDNEY_L (24 h) was 1 g, the KIDNEY_R (24 h) was 1 g and the KIDNEY_TOTAL (24 h) was 2 g. It also gave an LIVER (24 h) of 10.8 g, an A/G (24 h) of 1.5 and an ALP (24 h) of 926.8 IU/L. The ALT (24 h) was 41.8 IU/L, the AST (24 h) was 69.4 IU/L and the BUN (24 h) was 14.4 mg/dL. The CRE (24 h) was 0.4 mg/dL, the Ca (24 h) was 11 mg/dL and the Cl (24 h) was 103.4 meq/L. The DBIL (24 h) was 0.1 mg/dL, the GLC (24 h) was 215.8 mg/dL and the IP (24 h) was 8.5 mg/dL. It also gave a K (24 h) of 4.2 meq/L, an LDH (24 h) of 146.6 IU/L and a Na (24 h) of 141.8 meq/L. For the same molecule, the PL (24 h) was 136.4 mg/dL, the RALB (24 h) was 3.3 g/dL and the TBIL (24 h) was 0.2 mg/dL. For the same molecule, the TC (24 h) was 71 mg/dL, the TG (24 h) was 95 mg/dL and the TP (24 h) was 5.5 g/dL. It also gave a gamma-GTP (24 h) of 1.4 IU/L.
